In BindingDB's records for doi:10.1080/14756360290019944 (University of Porto-Rua Anibal Cunha, 2002) one finds IC50 data, which are given here for ten compounds.

The term IC50 denotes the point on the concentration scale where inhibition reaches its midpoint. Low values mean greater potency in that assay, high ones weaker potency in that assay.

Chain of Xanthine dehydrogenase/oxidase (P47989 whole entry): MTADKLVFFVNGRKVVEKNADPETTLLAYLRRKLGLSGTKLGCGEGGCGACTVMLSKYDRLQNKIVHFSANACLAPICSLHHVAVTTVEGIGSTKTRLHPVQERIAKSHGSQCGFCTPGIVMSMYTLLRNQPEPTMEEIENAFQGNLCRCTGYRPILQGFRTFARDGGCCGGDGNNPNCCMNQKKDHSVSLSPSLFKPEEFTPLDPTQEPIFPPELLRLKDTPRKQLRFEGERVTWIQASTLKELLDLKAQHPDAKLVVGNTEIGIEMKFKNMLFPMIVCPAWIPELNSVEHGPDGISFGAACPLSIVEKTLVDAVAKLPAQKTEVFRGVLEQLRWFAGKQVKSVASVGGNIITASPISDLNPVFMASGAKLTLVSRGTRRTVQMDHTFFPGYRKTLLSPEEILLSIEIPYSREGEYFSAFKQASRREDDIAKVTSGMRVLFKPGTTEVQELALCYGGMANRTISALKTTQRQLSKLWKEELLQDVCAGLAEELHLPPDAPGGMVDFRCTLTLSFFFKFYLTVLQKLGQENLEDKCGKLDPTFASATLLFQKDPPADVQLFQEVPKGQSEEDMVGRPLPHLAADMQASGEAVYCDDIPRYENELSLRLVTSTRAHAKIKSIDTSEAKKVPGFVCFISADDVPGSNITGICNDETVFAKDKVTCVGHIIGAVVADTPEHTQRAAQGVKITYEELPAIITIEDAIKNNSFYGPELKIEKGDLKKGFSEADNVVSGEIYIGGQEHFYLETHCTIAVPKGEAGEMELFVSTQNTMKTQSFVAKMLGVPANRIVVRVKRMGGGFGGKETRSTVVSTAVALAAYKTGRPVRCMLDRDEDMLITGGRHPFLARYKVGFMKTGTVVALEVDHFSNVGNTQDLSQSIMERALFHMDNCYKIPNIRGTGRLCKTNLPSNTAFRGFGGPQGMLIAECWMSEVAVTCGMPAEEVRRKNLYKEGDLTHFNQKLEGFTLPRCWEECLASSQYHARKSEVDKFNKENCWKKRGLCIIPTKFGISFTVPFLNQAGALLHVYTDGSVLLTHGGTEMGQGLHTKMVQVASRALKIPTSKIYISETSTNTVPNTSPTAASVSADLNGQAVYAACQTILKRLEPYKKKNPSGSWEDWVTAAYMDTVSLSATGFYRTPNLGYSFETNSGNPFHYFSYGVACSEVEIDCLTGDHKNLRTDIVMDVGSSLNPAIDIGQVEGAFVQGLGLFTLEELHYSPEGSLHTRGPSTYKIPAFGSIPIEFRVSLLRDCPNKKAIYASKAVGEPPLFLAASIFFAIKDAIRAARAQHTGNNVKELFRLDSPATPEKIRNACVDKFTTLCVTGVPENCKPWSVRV

The assay addresses Xanthine dehydrogenase/oxidase (Homo sapiens, UniProt P47989). Kind of assay: Inhibition Assay. The settings on record: pH 7.8; 25 °C. As for the experimental part: The effect of 2-styrylchromone 1-3 on xanthine oxidase activity was evaluated by measuring the formation of uric acid from xanthine in a double beam spectrophotometer (Shimadzu 2600) at room temperature.
Compound `O=c1cc(/C=C/c2ccccc2)oc2ccccc12` came in with an IC50 of more than 100 µM. The result for `O=c1cccc2oc(C=Cc3ccccc3)cc(O)c1-2` [2-Styrylchromone derivate, 1b] reads 52.1 µM. For `O=c1cc(/C=C/c2ccccc2)oc2cc(O)ccc12` [2-Styrylchromone derivate, 1c], the concentration for half-maximal inhibition (IC50) is 17 µM. The result for `O=c1cc(C=Cc2ccccc2)oc2cc(O)cc(O)c12` [2-Styrylchromone derivate, 1d] reads 2.52 µM; that for `O=c1cccc2oc(C=Cc3ccc(O)cc3)cc(O)c1-2` [2-Styrylchromone derivate, 2a], 77.4 µM; that for `O=c1cc(/C=C/c2ccc(O)cc2)oc2cc(O)ccc12` [2-Styrylchromone derivate, 2b], 19.6 µM. Take `O=c1cc(C=Cc2ccc(O)cc2)oc2cc(O)cc(O)c12` [2-Styrylchromone derivate, 2c]: the IC50 is 9.46 µM. The result for `O=c1cccc2oc(C=Cc3ccc(O)c(O)c3)cc(O)c1-2` [2-Styrylchromone derivate, 3a] reads 4.36 µM; that for `O=c1cc(/C=C/c2ccc(O)c(O)c2)oc2cc(O)ccc12` [2-Styrylchromone derivate, 3b], 2.03 µM. The result for `O=c1cc(O)cc2oc(C=Cc3ccc(O)c(O)c3)cc(O)c1-2` [2-Styrylchromone derivate, 3c] reads 0.55 µM.
